For data set [1] the following is noted: Crystal; DTA.
A short description of data set [2]: Molar enthalpy of transition or fusion. The conditions noted are these: Crystal; DSC.

Each structure is given as a SMILES string. ± gives the expanded uncertainty stated by the source.

As to `CCCCCCCCCCCCCCCCCC` [octadecane], the Normal melting temperature in data set [1] was 27.80 ± 0.53 °C. The “Molar enthalpy of transition or fusion” value in data set [2] worked out at 14.7 ± 0.406 kcal/mol.
As to `CCCCCCCCCCCCO` [dodecan-1-ol], the Normal melting temperature in data set [1] is 24.00 ± 0.53 °C. Also, the “Molar enthalpy of transition or fusion” value in data set [2] was found to be 9.33 ± 0.263 kcal/mol.

For the origin of these results see the NIST ThermoML archive (doi:10.1016/j.jct.2013.01.019).
